# Measured values reported in US20250121083A1, “Tumor-Associated Calcium Signal Transducer 2 (TACSTD2) Antibody-Maytansine Conjugates and Methods of Use Thereof” (priority 2021, published 2025).
# How the values were obtained:
# NCI-H292 xenograft model = test: NCI-H292 xenograft study; type: in vivo, female SCID Beige mice; settings: 26 mg/kg x 4 doses, i.v.; 8 mice per group
# Description: Methods: For the NCI-H292 study, female SCID Beige mice (8 per group) were inoculated subcutaneously with 5 million NCI-H292 cells in PBS. Treatment began when the tumors reached an average of 116 mm^3. For the NCI-N87 study, female BALB/c nude mice (8 per group) were inoculated subcutaneously with 10 million NCI-N87 cells in a 1:1 solution of PBS:Matrigel. Treatment began when the tumors reached an average of 221 mm^3. […] Two general dosing schedules were used: either test articles were delivered once every 3 wk (arrowheads) or they were delivered two times in a three week period, on days 0 and 7 (arrows). The dosing cycles were repeated twice, so that animals in the first dosing group received a total of 2 doses, while the animals in the second dosing group received a total of 4 doses. The animals were monitored twice weekly for body weight and tumor size. Animals were euthanized when tumors reached 2000 mm^3.
# For the results shown in FIG. 8, CR refers to an individual mouse that has no detectable tumor volume, which could be for only a short time, for example, one observation, or it could be for a longer period. […] The lines in FIG. 8 show the mean tumor volume across all mice in a group. Because 8 mice were used per group, the line shown in FIG. 8 might not go to zero; however, there could still be individual animals that attained CR.
# [1] = tested on: TACSTD2-positive cell lines Bx-PC-3, NCI-H87, NCI-H292, and MDA-MB-468; test: In vitro cytotoxicity, Cell Titer-Glo, 5 d; type: cell-based; settings: 120 h, range over the four tested cell lines, read-out: IC50 concentrations
# Protocol: The TACSTD2-positive cell lines, Bx-PC-3, […], NCI-H292, and MDA-MB-468 were obtained from the ATCC cell bank. The cells were maintained in RPMI 1640 or DMEM medium (Cellgro) supplemented with 10 or 20% fetal bovine serum (Invitrogen) and Glutamax (Invitrogen). 24 h prior to plating, cells were passaged to ensure log-phase growth. On the day of plating, 5000 cells/well were seeded onto 96-well plates in 100 μL normal growth medium supplemented with 10 IU penicillin and 10 μg/mL streptomycin (Cellgro). […] After 5 d, 100 μL/well of Cell Titer-Glo reagent (Promega) was added, and luminescence was measured using a Molecular Devices SpectraMax M5 plate reader. GraphPad Prism software was used for data analysis.
# MDA-MB-468 cells = test: In vitro cytotoxicity, Cell Titer-Glo, 8 d; type: cell-based; settings: Homo sapiens, 192 h
# Protocol: Methods: The TACSTD2-positive cell line, MDA-MB-468 was obtained from the ATCC cell bank. The cells were maintained in DMEM medium supplemented with 10% fetal bovine serum (Invitrogen), 2× Glutamax (Invitrogen) and 1× antibiotic/antimycotic (Corning). On the day of plating, 1500 cells/well were seeded onto 96-well plates in 100 μL normal growth medium. Cells were treated at various concentrations with 20 μL of diluted analytes (sacituzumab compound 21 ADC or free belotecan payload), and the plates were incubated at 37° C. in an atmosphere of 5% CO2. After 8 d, 100 μL/well of Cell Titer-Glo reagent (Promega) was added, and luminescence was measured using a Molecular Devices SpectraMax M5 plate reader. GraphPad Prism software was used for data analysis.
# [2] = cited from earlier work
molecule,measurement,setting,value
Trodelvy [reference compound],complete responses (CRs),NCI-H292 xenograft model,1/8
"COc1cc2cc(c1Cl)N(C)C(=O)C[C@H](OC(=O)[C@H](C)N(C)C(C)=O)[C@]1(C)O[C@H]1[C@H](C)[C@@H]1C[C@@](O)(NC(=O)O1)[C@H](OC)/C=C/C=C(\C)C2 [free maytansine, maytansine]",IC50,[1],0.05 to 0.23 nM
same,IC50,MDA-MB-468 cells,0.77 nM
"DS-1062: Daiichi Sankyo's TROP-2-targeted ADC (conjugate, chains of the INN, looked up, deruxtecan payload, Daiichi Sankyo's TROP-2-targeted ADC) VH: QVQLVQSGAEVKKPGASVKVSCKASGYTFTTAGMQWVRQAPGQGLEWMGWINTHSGVPKYAEDFKGRVTISADTSTSTAYLQLSSLKSEDTAVYYCARSGFGSSYWYFDVWGQGTLVTVSS VL: DIQMTQSPSSLSASVGDRVTITCKASQDVSTAVAWYQQKPGKAPKLLIYSASYRYTGVPSRFSGSGSGTDFTLTISSLQPEDFAVYYCQQHYITPLTFGQGTKLEIK",intestinal toxicity,[2]; 10 mg/kg,toxicity findings in the intestines
same,safety signals in healthy tissues that express TROP-2,"[2]; >10 mg/kg, skin, cornea, oral, esophageal, vaginal mucosa",key adverse safety signals (including necrosis)
